Activity calls are given as the source filed them.
Columns and labels:
[1] = molecular target: Cytochrome P450 3A4 (Homo sapiens, UniProt P08684);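 also: CYP3A4 tested as one member of a cytochrome P450 panel screen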
[2] = molecular target: Dual specificity tyrosine-phosphorylation-regulated kinase 1A (Rattus norvegicus, UniProt Q63470); format: biochemical, Homo sapiens
[3] = viability of PTEN-deleted HCT116 cells – cell-based, HCT116 PTEN knockout, dose response (AID 1047); format: functional;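 also: HCT116 colon tumor cells with PTEN knocked out; cells exposed to compound for 60 hours before readout; potency for loss of cell viability measured by luminescence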
[4] = molecular target: DNA damage-inducible transcript 3 protein (Mus musculus, UniProt P35639); format: functional, Cricetulus griseus
[5] = viability of HCT116 lacking mutant beta-catenin – cell-based, human colon tumor, dose response (AID 1045); format: functional;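 also: HCT116 colon tumor cells with beta catenin knocked out; cells exposed to compound for 60 hours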
[6] = test system: BJ; test: cells; format: functional, cell-based; conditions: Homo sapiens
[7] = test system: BJ; test: BJ-TERT-LT-ST fibroblast viability loss – cell-based, RAS-independent, luminescence, dose response (AID 1935); format: functional; conditions: Homo sapiens;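 also: BJ fibroblasts immortalized with TERT plus LT and ST oncogenes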
[8] = molecular target: T1, Microphthalmia-associated transcription factor (Homo sapiens, UniProt O75030); test: reducers of TRPM1 reporter luminescence, concentration series – cell-based, SK-MEL-5, cherry-picked, set 3, MITF inhibitor project, dose response (AID 493073); format: functional;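 also: SK-MEL-5 melanoma cells with luciferase driven by the MITF target TRPM1 promoter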
T1 sequence (O75030 whole entry): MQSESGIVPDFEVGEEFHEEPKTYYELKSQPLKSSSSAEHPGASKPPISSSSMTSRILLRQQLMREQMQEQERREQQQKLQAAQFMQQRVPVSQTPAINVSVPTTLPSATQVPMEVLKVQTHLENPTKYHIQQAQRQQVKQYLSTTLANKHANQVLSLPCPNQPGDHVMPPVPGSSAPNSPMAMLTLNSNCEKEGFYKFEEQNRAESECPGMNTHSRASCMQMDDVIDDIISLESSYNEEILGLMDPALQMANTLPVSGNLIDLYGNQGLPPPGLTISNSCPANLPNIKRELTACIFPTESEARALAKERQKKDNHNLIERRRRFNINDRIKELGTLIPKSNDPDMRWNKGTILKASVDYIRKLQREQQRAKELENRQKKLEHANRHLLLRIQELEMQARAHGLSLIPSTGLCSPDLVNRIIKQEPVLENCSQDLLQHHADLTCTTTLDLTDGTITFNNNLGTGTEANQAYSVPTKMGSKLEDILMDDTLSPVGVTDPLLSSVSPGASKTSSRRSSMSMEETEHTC

[9] = NIH-3T3 fibroblast cytotoxicity, dose response, cytotoxicity control, cell-based, fluorescence, Alamar Blue, secondary assay (AID 2327); format: functional;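 also: NIH-3T3 mouse fibroblasts cultured with fluconazole at 8 µg/mL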
[10] = DRD fibroblast viability loss – cell-based, non-viral oncogenic, luminescence, dose response (AID 1934); format: functional; conditions: Homo sapiens
[11] = cells; format: functional, cell-based
[12] = cells; format: functional, cell-based; remark: listed apart in the source
[13] = test system: INS1; test: INS-1E survival protection against cytokine death – cell-based, luminescence, retest, dose response (AID 449756); format: functional; conditions: Rattus norvegicus;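 also: cell death triggered by IL-1 beta plus TNF-alpha plus IFN-gamma mixture; protective hits raise ATP signal compared with cytokine alone wells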
[14] = test system: BJ; test: BJ-TERT fibroblast viability loss – cell-based, RAS-independent, luminescence, dose response (AID 1933); format: functional; conditions: Homo sapiens
[15] = fluconazole-exposed Candida albicans growth modulators – fluorescence, retest, confirmation (AID 2467); format: functional, cell-based
[16] = molecular target: Cytochrome P450 2C19 (Homo sapiens, UniProt P33261); test: Cytochrome panel assay with activity outcomes. Panel member name: p450-cyp2c19 Compounds with AC50 equal or less than 10 uM are considered active; format: functional
[17] = test system: HEK293; test: EBV LMP1 TES2 canonical NF-kB signalling blockers – cell-based, HEK293, luciferase, cherry-pick, dose response (AID 588343); format: functional; conditions: Homo sapiens
[18] = molecular target: T2, Cytochrome P450 1A2 (Homo sapiens, UniProt P05177);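 also: PubChem cytochrome P450 panel assay, CYP1A2 panel member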
T2 sequence (P05177 whole entry): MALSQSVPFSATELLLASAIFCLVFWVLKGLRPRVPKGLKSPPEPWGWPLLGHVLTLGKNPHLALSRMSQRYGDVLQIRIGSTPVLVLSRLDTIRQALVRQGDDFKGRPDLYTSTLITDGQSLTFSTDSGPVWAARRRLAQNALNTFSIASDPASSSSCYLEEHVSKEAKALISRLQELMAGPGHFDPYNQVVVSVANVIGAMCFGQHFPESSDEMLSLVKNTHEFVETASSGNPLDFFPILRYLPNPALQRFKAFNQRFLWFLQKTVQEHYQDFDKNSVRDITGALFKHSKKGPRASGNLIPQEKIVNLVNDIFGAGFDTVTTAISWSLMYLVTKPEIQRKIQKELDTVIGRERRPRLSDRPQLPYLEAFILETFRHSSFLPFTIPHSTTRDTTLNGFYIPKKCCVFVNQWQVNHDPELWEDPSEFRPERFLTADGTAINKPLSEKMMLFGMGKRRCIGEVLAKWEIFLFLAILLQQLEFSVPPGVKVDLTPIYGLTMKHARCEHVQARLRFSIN

[19] = test system: HEK293; test: NOD2 signaling inhibitors in MDP-stimulated cells, cell-based, uHTS, luminescence (AID 2001); format: functional; conditions: Homo sapiens
[20] = test system: HEK293; test: cells; format: functional, cell-based; conditions: Homo sapiens
[21] = molecular target: Nucleotide-binding oligomerization domain-containing protein 2 (Homo sapiens, UniProt Q9HC29); test: inhibition of NOD2-driven NF-kB reporter – cell-based, luminescence, uHTS, HEK293 (AID 1566); format: functional
[22] = test system: HEK293; test: inhibition of NOD1-driven NF-kB reporter – cell-based, luminescence, uHTS, primary screen (AID 1578); format: functional; conditions: Homo sapiens
[23] = test system: HEK293; test: cells; format: functional, cell-based; conditions: Homo sapiens; remark: listed apart in the source
[24] = test system: HEK293; test: cells; format: functional, cell-based; conditions: Homo sapiens; remark: listed apart in the source
[25] = test system: Streptococcus sp. 'group A'; test: Streptococcus pyogenes SK(-)GAS viability under kanamycin – luminescence, BacTiterGlo, confirmation, counter-screen for streptokinase expression inhibitor project, dose response (AID 1900); format: functional, organism-based
[26] = test system: Streptococcus; test: GAS UMAA2166 growth inhibition – luminescence, BacTiterGlo, counter-screen for streptokinase expression inhibitor project, dose response (AID 1915); format: functional, organism-based;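 also: potency for reduction of bacterial viability or growth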
[27] = molecular target: T3, Streptokinase A (Streptococcus pyogenes serotype M1, UniProt P10520); test: viability-normalized secreted streptokinase activity reduction – plasminogen activation absorbance, OD405, dose response (AID 1914); format: functional, Streptococcus pyogenes M1 GAS;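 also: secreted streptokinase activity via plasminogen activation per viability signal from cell pellet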
T3 sequence (P10520 whole entry): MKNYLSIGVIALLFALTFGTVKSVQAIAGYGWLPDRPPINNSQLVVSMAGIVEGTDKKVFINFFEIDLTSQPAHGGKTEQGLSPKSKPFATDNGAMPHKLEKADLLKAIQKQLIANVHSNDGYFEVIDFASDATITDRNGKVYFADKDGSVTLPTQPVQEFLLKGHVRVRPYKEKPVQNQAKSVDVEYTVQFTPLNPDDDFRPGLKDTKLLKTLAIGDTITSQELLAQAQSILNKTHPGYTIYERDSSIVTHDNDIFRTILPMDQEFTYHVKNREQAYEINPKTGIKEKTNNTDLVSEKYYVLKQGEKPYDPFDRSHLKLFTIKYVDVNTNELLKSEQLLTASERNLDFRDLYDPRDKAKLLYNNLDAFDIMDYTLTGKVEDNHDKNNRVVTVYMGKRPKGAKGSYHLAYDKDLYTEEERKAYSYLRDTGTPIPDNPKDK

[28] = molecular target: T4, Protein skinhead-1 (Caenorhabditis elegans, UniProt P34707); format: functional
T4 sequence (P34707 whole entry): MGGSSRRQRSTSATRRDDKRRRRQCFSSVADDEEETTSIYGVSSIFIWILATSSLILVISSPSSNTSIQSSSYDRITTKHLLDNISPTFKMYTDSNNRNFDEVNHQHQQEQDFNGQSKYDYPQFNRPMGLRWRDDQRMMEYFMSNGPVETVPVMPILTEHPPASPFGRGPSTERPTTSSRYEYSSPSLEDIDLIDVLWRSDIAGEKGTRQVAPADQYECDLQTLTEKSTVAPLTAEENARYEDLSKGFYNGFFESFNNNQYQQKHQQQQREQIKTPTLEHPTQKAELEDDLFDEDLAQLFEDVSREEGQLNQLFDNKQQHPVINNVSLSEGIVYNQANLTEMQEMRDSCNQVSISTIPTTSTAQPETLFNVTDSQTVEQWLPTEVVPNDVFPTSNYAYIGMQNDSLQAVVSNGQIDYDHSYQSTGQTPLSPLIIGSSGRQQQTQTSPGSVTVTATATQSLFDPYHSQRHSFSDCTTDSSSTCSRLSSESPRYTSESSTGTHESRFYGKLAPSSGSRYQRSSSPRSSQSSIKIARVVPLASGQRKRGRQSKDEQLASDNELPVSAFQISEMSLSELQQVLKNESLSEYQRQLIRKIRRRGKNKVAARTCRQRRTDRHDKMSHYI

[29] = molecular target: Peroxisome proliferator-activated receptor gamma/Nuclear receptor coactivator 2 (Homo sapiens, UniProt P37231); test: TR-FRET dose response biochemical High Throughput Screening assay for agonists of the steroid receptor coactivator 2 (SRC-2) recruitment by the peroxisome proliferator-activated receptor gamma (PPAR gamma): non-selective agonists. [Related pubchem assays: 1297, 1032 ]; format: functional
[30] = molecular target: Peroxisome proliferator-activated receptor gamma/Nuclear receptor coactivator 1 (Homo sapiens, UniProt P37231); test: TR-FRET dose response biochemical High Throughput Screening assay for agonists of the steroid receptor coactivator 1 (SRC-1) recruitment by the peroxisome proliferator-activated receptor gamma (PPAR gamma): non-selective agonists. [Related pubchem assays (depositor defined):AID1300, AID1808, AID504735, AID631]; format: protein assay
[31] = molecular target: Peroxisome proliferator-activated receptor gamma/Nuclear receptor coactivator 3 (Homo sapiens, UniProt P37231); test: TR-FRET dose response biochemical High Throughput Screening assay for agonists of the steroid receptor coactivator 3 (SRC-3) recruitment by the peroxisome proliferator-activated receptor gamma (PPAR gamma): non-selective agonists. [Related pubchem assays: 1301 (Confirmation screen.), 1048 (Primary screen.)]; format: functional

Sequence of Cytochrome P450 3A4 (P08684 whole entry): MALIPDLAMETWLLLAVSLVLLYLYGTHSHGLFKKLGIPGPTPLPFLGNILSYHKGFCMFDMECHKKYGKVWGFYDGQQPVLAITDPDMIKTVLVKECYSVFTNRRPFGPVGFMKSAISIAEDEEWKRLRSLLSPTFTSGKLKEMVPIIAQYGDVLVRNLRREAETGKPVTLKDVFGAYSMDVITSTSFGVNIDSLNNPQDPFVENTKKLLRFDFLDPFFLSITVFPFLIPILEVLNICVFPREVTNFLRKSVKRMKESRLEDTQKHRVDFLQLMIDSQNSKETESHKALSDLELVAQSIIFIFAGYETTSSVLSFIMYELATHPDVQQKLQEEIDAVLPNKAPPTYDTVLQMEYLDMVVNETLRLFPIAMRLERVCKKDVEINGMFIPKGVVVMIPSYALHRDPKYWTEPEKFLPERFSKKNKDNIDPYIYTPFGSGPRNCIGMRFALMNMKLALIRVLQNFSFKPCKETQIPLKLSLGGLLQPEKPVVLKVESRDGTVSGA
Sequence of Nucleotide-binding oligomerization domain-containing protein 2 (Q9HC29 whole entry, the tested form may be a part): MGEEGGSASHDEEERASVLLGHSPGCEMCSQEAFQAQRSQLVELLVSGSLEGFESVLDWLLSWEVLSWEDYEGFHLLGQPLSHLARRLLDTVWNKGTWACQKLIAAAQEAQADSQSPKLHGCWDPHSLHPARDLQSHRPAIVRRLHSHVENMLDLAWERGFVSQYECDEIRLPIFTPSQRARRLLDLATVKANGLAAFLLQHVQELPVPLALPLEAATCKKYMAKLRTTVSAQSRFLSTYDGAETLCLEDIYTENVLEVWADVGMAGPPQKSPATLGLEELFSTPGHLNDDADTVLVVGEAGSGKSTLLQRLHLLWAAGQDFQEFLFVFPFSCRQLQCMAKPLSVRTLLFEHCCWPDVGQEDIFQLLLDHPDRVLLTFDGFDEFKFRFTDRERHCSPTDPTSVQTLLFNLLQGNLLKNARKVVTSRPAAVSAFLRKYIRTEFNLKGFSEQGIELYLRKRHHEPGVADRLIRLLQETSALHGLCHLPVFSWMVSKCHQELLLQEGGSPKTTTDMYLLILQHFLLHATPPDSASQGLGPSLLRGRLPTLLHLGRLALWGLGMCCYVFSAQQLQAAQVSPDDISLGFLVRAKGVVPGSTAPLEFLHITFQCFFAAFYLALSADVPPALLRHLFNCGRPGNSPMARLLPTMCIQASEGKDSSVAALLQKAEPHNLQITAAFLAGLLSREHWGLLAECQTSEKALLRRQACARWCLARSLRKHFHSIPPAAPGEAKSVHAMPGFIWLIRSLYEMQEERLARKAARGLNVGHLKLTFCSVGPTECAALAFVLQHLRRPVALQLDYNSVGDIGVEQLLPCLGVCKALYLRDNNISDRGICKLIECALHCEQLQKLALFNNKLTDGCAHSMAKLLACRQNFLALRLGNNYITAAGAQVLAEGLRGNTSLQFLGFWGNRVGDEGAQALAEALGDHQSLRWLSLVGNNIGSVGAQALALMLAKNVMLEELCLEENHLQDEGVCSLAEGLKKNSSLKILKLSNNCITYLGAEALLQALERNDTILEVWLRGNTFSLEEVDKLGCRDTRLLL
Sequence of DNA damage-inducible transcript 3 protein (P35639 whole entry): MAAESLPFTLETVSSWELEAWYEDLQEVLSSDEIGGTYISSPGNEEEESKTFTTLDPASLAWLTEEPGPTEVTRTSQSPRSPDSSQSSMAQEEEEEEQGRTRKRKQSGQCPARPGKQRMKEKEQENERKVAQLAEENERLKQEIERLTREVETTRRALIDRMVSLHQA
Sequence of Cytochrome P450 2C19 (P33261 whole entry): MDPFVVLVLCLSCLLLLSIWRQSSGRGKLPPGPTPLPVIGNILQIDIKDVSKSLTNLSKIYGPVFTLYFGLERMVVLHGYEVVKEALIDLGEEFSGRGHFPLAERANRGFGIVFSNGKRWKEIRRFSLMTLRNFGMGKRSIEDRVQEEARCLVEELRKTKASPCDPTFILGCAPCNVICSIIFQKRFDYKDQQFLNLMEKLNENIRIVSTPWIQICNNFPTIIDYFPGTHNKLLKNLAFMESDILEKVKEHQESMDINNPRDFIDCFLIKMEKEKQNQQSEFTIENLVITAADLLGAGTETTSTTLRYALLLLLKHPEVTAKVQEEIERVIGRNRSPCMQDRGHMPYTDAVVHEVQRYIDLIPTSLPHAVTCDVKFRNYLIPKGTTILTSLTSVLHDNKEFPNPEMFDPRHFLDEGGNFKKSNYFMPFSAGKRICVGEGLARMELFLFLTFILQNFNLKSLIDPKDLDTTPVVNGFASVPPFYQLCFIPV
Sequence of Peroxisome proliferator-activated receptor gamma/Nuclear receptor coactivator 1 (P37231 whole entry): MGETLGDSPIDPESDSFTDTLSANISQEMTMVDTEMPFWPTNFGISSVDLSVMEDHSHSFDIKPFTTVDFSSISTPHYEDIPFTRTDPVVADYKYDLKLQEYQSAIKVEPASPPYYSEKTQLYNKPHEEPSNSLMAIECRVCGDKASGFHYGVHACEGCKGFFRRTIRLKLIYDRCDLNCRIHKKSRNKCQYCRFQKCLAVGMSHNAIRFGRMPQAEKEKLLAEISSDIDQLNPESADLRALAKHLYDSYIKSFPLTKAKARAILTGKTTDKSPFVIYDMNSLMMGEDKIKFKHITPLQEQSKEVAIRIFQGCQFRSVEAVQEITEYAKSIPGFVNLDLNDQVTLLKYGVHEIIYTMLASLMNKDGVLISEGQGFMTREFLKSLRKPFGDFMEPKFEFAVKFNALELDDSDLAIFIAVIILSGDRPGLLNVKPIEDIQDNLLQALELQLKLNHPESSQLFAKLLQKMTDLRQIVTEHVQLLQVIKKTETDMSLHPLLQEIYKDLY
Sequence of Peroxisome proliferator-activated receptor gamma/Nuclear receptor coactivator 1 (Q15788 whole entry, further chain): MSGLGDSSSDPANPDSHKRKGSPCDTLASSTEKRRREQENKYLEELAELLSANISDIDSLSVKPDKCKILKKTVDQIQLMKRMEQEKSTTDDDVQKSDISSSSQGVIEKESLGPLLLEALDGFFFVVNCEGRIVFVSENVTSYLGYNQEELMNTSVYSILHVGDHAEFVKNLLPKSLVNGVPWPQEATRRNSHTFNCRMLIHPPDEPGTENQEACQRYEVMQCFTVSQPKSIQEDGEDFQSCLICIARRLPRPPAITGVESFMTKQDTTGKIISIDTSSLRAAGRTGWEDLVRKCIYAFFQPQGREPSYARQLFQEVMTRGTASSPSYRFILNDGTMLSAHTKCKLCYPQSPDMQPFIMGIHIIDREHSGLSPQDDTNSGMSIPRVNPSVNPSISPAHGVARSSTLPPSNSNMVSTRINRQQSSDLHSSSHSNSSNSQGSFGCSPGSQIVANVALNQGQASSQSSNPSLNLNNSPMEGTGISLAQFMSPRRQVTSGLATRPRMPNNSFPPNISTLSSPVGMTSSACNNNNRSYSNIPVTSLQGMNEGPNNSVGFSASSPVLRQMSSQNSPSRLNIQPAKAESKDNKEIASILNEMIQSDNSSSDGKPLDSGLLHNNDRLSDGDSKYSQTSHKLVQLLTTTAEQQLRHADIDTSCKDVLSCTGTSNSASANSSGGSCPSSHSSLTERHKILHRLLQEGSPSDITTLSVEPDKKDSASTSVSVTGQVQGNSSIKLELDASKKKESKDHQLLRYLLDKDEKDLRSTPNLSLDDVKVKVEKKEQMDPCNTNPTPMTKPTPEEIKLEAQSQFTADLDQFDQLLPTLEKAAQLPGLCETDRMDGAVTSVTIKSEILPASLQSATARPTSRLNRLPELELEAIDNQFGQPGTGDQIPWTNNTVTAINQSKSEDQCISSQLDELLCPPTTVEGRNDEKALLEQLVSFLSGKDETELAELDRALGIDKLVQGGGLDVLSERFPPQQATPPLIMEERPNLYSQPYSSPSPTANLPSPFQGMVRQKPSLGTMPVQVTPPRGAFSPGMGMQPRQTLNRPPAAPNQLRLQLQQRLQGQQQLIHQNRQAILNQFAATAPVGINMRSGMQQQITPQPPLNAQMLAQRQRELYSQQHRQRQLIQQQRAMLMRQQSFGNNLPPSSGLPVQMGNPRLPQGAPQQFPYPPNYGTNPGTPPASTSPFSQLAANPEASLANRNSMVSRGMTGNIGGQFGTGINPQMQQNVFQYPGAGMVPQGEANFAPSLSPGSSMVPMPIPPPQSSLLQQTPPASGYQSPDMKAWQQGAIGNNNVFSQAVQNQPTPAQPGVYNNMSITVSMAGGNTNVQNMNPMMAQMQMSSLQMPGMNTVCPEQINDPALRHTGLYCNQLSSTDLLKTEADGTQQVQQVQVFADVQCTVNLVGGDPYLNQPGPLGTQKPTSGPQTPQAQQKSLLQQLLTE

Compound: C#C[C@@]1(OC(C)=O)CC[C@@H]2[C@@H]3CCC4=C[C@@H](OC(C)=O)CC[C@H]4[C@H]3CC[C@]21C
- AC50 [1]: inconclusive

Compound: O=C(Nc1ccc(Cl)cc1)Nc1ccc2c(c1)N1CCN=C1S2
- AC50 [2]: 1.07 µM (active)

Compound: CSc1nc(O)c2cnn(-c3ccc(C)c(C)c3)c2n1
- EC50 [3]: 26.2 µM (active)
- Absolute IC50 (CHOP) [4]: 10 µM
- EC50 [5]: 27.6 µM (active)

Compound: COc1ccc(O)c(/C=N/NC(=O)c2ccc(CSc3nc(C)cc(C)n3)cc2)c1
- EC50 [6]: 17.5 µM (inconclusive)
- EC50 [7]: > 75 µM (not active)
- AC50 [8]: 9.31 µM (active)
- EC50 [9]: > 150 µM (inactive)
- EC50 [10]: 27.7 µM (active)
- EC50 [11]: > 350 µM (not active)
- EC50 [12]: 24 µM (active)
- AC50 [13]: 4.6 µM (active)
- EC50 [14]: 20.6 µM (active)
- EC50 [15]: > 38 µM (not active)

Compound: O=C(c1cnccn1)N1CCC2(CC1)CN(c1ccccn1)C2
- AC50 [1]: inconclusive

Compound: O=C(Nc1nnc(COc2ccc(Cl)cc2)s1)c1ccc([N+](=O)[O-])cc1
- AC50 [1]: inconclusive
- AC50 [16]: inconclusive

Compound: CC1(C)Cc2nc3sc4c(SCC(=O)O)ncnc4c3cc2CO1
- AC50 [17]: 4.58 µM (active)
- AC50 [2]: 2.6 µM (active)

Compound: Cn1c(=O)c(-c2ccc(Cl)cc2)nc2cnc(Oc3cccc(Cl)c3)nc21
- AC50 [1]: inconclusive
- AC50 [18]: 0.251 µM (inconclusive)

Compound: CCN(C(=O)c1cnc(N2CCN(c3ncccn3)CC2)c2ccccc12)c1cccc(Cl)c1
- IC50 [19]: 4.17 µM (active)
- AC50 [18]: 15.8 µM (inconclusive)
- IC50 [20]: 3.5 µM (active)
- EC50 [21]: 7.19 µM (active)
- EC50 [22]: 5.39 µM (active)
- IC50 [23]: > 20 µM (inactive)
- IC50 [24]: 8.34 µM (active)

Compound: CN(C)C=O.N#Cc1ccc(Cl)cc1NC(=O)CSc1nc(O)c2c(C(F)(F)F)cc(-c3cccs3)nc2n1
- IC50 [19]: 6.22 µM (inactive)
- EC50 [25]: 7.34 µM (active)
- IC50 [20]: 9.55 µM (active)
- EC50 [21]: 8.42 µM (active)
- EC50 [22]: 5.63 µM (active)
- EC50 [26]: > 150 µM (not active)
- IC50 [23]: > 20 µM (inactive)
- EC50 [27]: > 150 µM (not active)
- IC50 [24]: > 20 µM (inactive)

Compound: COc1cc(O)c2c(=O)c3c(O)c(O)ccc3oc2c1OC
- AC50 [2]: 2.06 µM (active)

Compound: COC(=O)CN1C(=S)N(Cc2ccccc2)C(=O)C1CC(=O)Nc1ccc(Br)cc1 (configuration not stated)
- IC50 [28]: > 100 µM (inactive)
- Absolute IC50 (CHOP) [4]: 10 µM

Compound: CCn1c(=O)cc(SCC(=O)NCc2ccccn2)c2ccccc21
- EC50 [29]: > 79.4 µM (not active)
- EC50 [30]: > 79.4 µM (inactive)
- EC50 [31]: > 79.4 µM (not active)

Compound: COc1ccc(/C=C2\SC(=N)NC2=O)cc1
- AC50 [2]: 0.038 µM (active)

Compound: CCOC(=O)N1CCN(C(=O)c2ccc3c(=O)n(-c4ccc(OC)cc4)c(=S)[nH]c3c2)CC1
- AC50 [1]: inconclusive
- AC50 [18]: 39.8 µM (inconclusive)

Source: ChEMBL document CHEMBL1201862, “PubChem BioAssay data set” (2004)
